Assay results published in patent US11987589B2, “Heterocyclic flavone derivatives, compositions, and methods related thereto” (Emory University, priority 2018, dated 2024).
Each block holds one compound with its values, some of them ahead of it.

Legend:
Plasma Stability (mouse) = assay type: in vitro ADME
Plasma Stability (human) = assay type: in vitro ADME
BBB-PAMPA Permeability = assay type: in vitro ADME
[1] = Microsomal Intrinsic Clearance (mouse); conditions: liver microsomes; for microsomal CLint: Mouse microsomes
[2] = Hepatocyte Stability (human); conditions: hepatocytes
[3] = Microsomal Intrinsic Clearance (human); conditions: liver microsomes; for microsomal CLint: Human microsomes
TrkB [4] = molecular target: T1, TrkB (Rattus norvegicus, UniProt Q63604); assay: TrkB activation in rat TrkB stably transfected SN56 cells (T48), immunoblotting; assay type: cell-based; conditions: different doses, 15 min
T1 construct: expressed in transfected cells
T1 sequence (Q63604 32-821): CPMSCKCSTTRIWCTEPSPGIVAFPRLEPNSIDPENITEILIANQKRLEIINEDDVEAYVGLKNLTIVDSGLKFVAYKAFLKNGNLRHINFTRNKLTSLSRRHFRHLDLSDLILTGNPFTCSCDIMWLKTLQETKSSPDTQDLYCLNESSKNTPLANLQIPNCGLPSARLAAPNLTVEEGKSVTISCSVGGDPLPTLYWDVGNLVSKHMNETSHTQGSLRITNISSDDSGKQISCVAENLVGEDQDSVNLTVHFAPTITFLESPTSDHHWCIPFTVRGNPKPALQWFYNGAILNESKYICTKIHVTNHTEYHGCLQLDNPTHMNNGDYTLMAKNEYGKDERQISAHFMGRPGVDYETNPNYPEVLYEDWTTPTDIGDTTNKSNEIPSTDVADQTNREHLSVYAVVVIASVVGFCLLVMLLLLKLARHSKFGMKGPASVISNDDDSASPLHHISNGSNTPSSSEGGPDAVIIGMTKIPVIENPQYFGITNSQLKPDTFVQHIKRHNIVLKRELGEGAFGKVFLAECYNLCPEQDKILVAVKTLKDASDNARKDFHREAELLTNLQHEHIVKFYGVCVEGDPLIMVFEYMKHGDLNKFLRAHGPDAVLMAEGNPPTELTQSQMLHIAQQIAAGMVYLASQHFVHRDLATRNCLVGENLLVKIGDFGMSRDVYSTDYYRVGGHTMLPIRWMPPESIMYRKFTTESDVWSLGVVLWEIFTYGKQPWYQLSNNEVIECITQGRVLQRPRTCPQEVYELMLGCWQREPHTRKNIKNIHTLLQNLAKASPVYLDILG

[5] = Hepatocyte Stability (mouse); conditions: hepatocytes
T48 cells = assay: Protection from staurosporine (STS)-induced apoptosis, MTT assay, T48 cells; assay type: cell-based
Protocol: Cytoprotective effects were tested. To examine whether these compounds protect cells from staurosporine (STS)-induced apoptosis, MTT assays were conducted using TrkB stable transfected cells or TrkB deficient SN56 cells.

TrkB [6] = assay: Endogenous TrkB activation in DIV13 primary cortical cultures, immunoblotting; assay type: cell-based; conditions: 15 min
Protocol: Endogenous TrkB activation in primary neurons were tested in DIV13 primary cortical cultures. The neurons were treated with the two compounds with doses for 15 min. The lysates were analyzed by immunoblotting with antibodies.

[7] = NADPH-dependent CLint, with NADPH

- Avg % Remaining at Last Point (Plasma Stability (mouse)): 80.8%
- Avg % Remaining at Last Point (Plasma Stability (human)): 93.6%
Compound: CC(=O)CC(c1ccccc1)c1c(O)c2ccccc2oc1=O (stereo not shown) [Warfarin, reference compound]

- recovery at 10 μM (BBB-PAMPA Permeability; Test Conc. 10 μM): 84.6%
Compound: CC(C)NCC(O)COc1ccc(CC(N)=O)cc1 (stereo not shown) [Atenolol, reference compound]

- microsomal CLint [1, 7]: 231 µL/min/mg
- half-life ([1]; NADPH-dependent T1/2, Mouse microsomes, with NADPH): 0.167 h
- microsomal CLint ([1]; NADPH-free CLint, NADPH-free): < 12.8 µL/min/mg
- half-life ([1]; NADPH-free T1/2, Mouse microsomes, NADPH-free): > 3 h
- Avg % Remaining at Last Point [2]: 54.8%
- half-life [2]: 2.22 h
- hepatocyte CLint [2]: 10.5 µL/min/1e6 cells
- microsomal CLint [3, 7]: 30.3 µL/min/mg
- half-life ([3]; NADPH-dependent T1/2, Human microsomes, with NADPH): 1.27 h
- microsomal CLint ([3]; NADPH-free CLint, NADPH-free): < 12.8 µL/min/mg
- half-life ([3]; NADPH-free T1/2, Human microsomes, NADPH-free): > 3 h
- Avg % Remaining at Last Point (Plasma Stability (mouse)): 80.3%
- half-life (Plasma Stability (mouse)): 5.75 h
- effects on p-TrkB 816 (TrkB [4]): behaved inversely
- p-Akt/p-MAPK downstream signals (TrkB [4]): increased in a dose-dependent manner
- p-TrkB 706 activation (TrkB [4]): activated p-TrkB 706 gradually
- Avg % Remaining at Last Point (Plasma Stability (human)): 91.1%
- half-life (Plasma Stability (human)): > 8 h
- Avg % Remaining at Last Point [5]: 67.1%
- half-life [5]: 4.58 h
- hepatocyte CLint [5]: 5.04 µL/min/1e6 cells
- Pe (BBB-PAMPA Permeability; Test Conc. 1 μM): 2.82
- recovery at 1 μM (BBB-PAMPA Permeability; Test Conc. 1 μM): 71%
Compound: Cn1c(=O)[nH]c2ccc3c(=O)cc(-c4ccc(C#N)cc4)oc3c21 [RM-CN, 4-(1-methyl-2,6-dioxo-1,2,3,6-tetrahydrochromeno[7,8-d]imidazol-8-yl)benzonitrile]
- EC50 (T48 cells): 0.0125 µM
- TrkB activation in primary neurons (TrkB [6]): dose-dependent effect in triggering TrkB activation
